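Cells were grown in 96-well plates and exposed to each compound for 48 hours at five concentrations; endpoints were interpolated linearly between bracketing concentrations, or set to the highest concentration if not reached. Abbreviation: GI50, concentration required for 50% inhibition of growth. TGI: concentration producing complete growth inhibition.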
How the values were obtained:
Assay in all cases: NCI anticancer screen, dose series, 48 h
[1] = test system: 786-0 renal
[2] = test system: A498 renal
[3] = test system: A549 NSCLC
[4] = test system: ACHN renal
[5] = test system: BT-549 breast
[6] = test system: CAKI-1 renal
[7] = test system: CCRF-CEM leukemia
[8] = test system: COLO 205 colon
[9] = test system: DU-145 prostate
[10] = test system: EKVX NSCLC
[11] = test system: HCC-2998 colon
[12] = test system: HCT-116 colon
[13] = test system: HCT-15 colon
[14] = test system: HL-60(TB) leukemia
[15] = test system: HOP-62 NSCLC
[16] = test system: HOP-92 NSCLC
[17] = test system: HS 578T breast
[18] = test system: HT29 colon
[19] = test system: IGROV1 ovarian
[20] = test system: K-562 leukemia
[21] = test system: KM12 colon
[22] = test system: LOX IMVI melanoma
[23] = test system: M14 melanoma
[24] = test system: MALME-3M melanoma
[25] = test system: MCF7 breast
[26] = test system: MDA-MB-231 breast
[27] = test system: MOLT-4 leukemia
[28] = test system: NCI-H226 lung
[29] = test system: NCI-H23 lung
[30] = test system: NCI-H460 lung
[31] = test system: NCI-H522 lung
[32] = test system: NCI/ADR-RES ovarian
[33] = test system: OVCAR-3 ovarian
[34] = test system: OVCAR-4 ovarian
[35] = test system: OVCAR-5 ovarian
[36] = test system: OVCAR-8 ovarian
[37] = test system: PC-3 prostate
[38] = test system: RPMI-8226 leukemia
[39] = test system: RXF 393 renal
[40] = test system: SF-268 CNS
[41] = test system: SF-295 CNS
[42] = test system: SF-539 CNS
[43] = test system: SK-MEL-2 melanoma
[44] = test system: SK-MEL-28 melanoma
[45] = test system: SK-MEL-5 melanoma
[46] = test system: SK-OV-3 ovarian
[47] = test system: SN12C renal
[48] = test system: SNB-19 CNS
[49] = test system: SNB-75 CNS
[50] = test system: SR leukemia
[51] = test system: SW-620 colon
[52] = test system: T-47D breast
[53] = test system: TK-10 renal
[54] = test system: U251 CNS
[55] = test system: UACC-257 melanoma
[56] = test system: UACC-62 melanoma
[57] = test system: UO-31 renal

In the case of `O=C(N/N=C/c1ccc[nH]1)c1[nH]c2ccc(Br)cc2c1-c1ccccc1`, the GI50 [1] is reported as 0.669 µM, the TGI [1] is reported as 7.37 µM and the GI50 [2] is reported as 6.36 µM. For the same molecule, the TGI [2] was 21.9 µM, the GI50 [3] was 0.345 µM and the TGI [3] was 6.88 µM. For the same molecule, the GI50 [4] was 0.516 µM, the TGI [4] was 5.88 µM and the GI50 [5] was 0.416 µM. The TGI [5] was 2.42 µM, the GI50 [6] was 0.362 µM and the TGI [6] was 9.86 µM. It also gave a GI50 [7] of 0.385 µM, a TGI [7] of 11.8 µM and a GI50 [8] of 0.298 µM. It also gave a TGI [8] of 1.32 µM, a GI50 [9] of 0.489 µM and a TGI [9] of 12.4 µM. It also gave a GI50 [10] of 0.881 µM, a TGI [10] of 9.16 µM and a GI50 [11] of 0.408 µM. For the same molecule, the TGI [11] was 4.81 µM, the GI50 [12] was 0.318 µM and the TGI [12] was 11 µM. The GI50 [13] was 0.297 µM, the TGI [13] was 10.9 µM and the GI50 [14] was 0.235 µM. It also gave a TGI [14] of 0.619 µM, a GI50 [15] of 0.526 µM and a TGI [15] of 8.93 µM. For the same molecule, the GI50 [16] was 1.77 µM, the TGI [16] was 9.77 µM and the GI50 [17] was 0.38 µM. It also gave a TGI [17] of 19.7 µM, a GI50 [18] of 0.324 µM and a TGI [18] of 4.31 µM. The GI50 [19] was 0.46 µM, the TGI [19] was 4.1 µM and the GI50 [20] was 0.253 µM. For the same molecule, the TGI [20] was 29.8 µM, the GI50 [21] was 0.477 µM and the TGI [21] was 6.08 µM. It also gave a GI50 [22] of 0.31 µM, a TGI [22] of 4.97 µM and a GI50 [23] of 0.322 µM. The TGI [23] was 10.7 µM, the GI50 [24] was 0.41 µM and the TGI [24] was 11.5 µM. It also gave a GI50 [25] of 0.178 µM, a TGI [25] of 2.41 µM and a GI50 [26] of 0.572 µM. The TGI [26] was 6.09 µM, the GI50 [27] was 0.437 µM and the TGI [27] was 13.4 µM. For the same molecule, the GI50 [28] was 0.398 µM, the TGI [28] was 2.78 µM and the GI50 [29] was 0.456 µM. The TGI [29] was 11.3 µM, the GI50 [30] was 0.338 µM and the TGI [30] was 1.23 µM. It also gave a GI50 [31] of 0.0927 µM, a TGI [31] of 0.515 µM and a GI50 [32] of 0.316 µM. For the same molecule, the TGI [32] was 2.19 µM, the GI50 [33] was 0.477 µM and the TGI [33] was 12.4 µM. For the same molecule, the GI50 [34] was 0.954 µM, the TGI [34] was 12.1 µM and the GI50 [35] was 0.489 µM. The TGI [35] was 10.7 µM, the GI50 [36] was 0.361 µM and the TGI [36] was 3.42 µM. It also gave a GI50 [37] of 0.441 µM, a TGI [37] of 8.15 µM and a GI50 [38] of 0.4 µM. The TGI [38] was 10.7 µM, the GI50 [39] was 0.339 µM and the TGI [39] was 10.3 µM. The GI50 [40] was 1.57 µM, the TGI [40] was 9.84 µM and the GI50 [41] was 0.243 µM. For the same molecule, the TGI [41] was 1.02 µM, the GI50 [42] was 0.219 µM and the TGI [42] was 0.59 µM. It also gave a GI50 [43] of 0.379 µM, a TGI [43] of 13.9 µM and a GI50 [44] of 0.653 µM. It also gave a TGI [44] of 16.1 µM, a GI50 [45] of 0.344 µM and a TGI [45] of 1.6 µM. It also gave a GI50 [46] of 0.614 µM, a TGI [46] of 9.89 µM and a GI50 [47] of 0.41 µM. For the same molecule, the TGI [47] was 3.91 µM, the GI50 [48] was 0.423 µM and the TGI [48] was 11.5 µM. It also gave a GI50 [49] of 0.187 µM, a TGI [49] of 3.83 µM and a GI50 [50] of 0.273 µM. For the same molecule, the GI50 [51] was 0.378 µM, the TGI [51] was 13.6 µM and the GI50 [52] was 0.319 µM. For the same molecule, the TGI [52] was 7.25 µM, the GI50 [53] was 1.71 µM and the TGI [53] was 13.9 µM. For the same molecule, the GI50 [54] was 0.349 µM, the TGI [54] was 4.57 µM and the GI50 [55] was 0.688 µM. For the same molecule, the TGI [55] was 13.7 µM, the GI50 [56] was 0.191 µM and the TGI [56] was 1.76 µM. For the same molecule, the GI50 [57] was 0.489 µM and the TGI [57] was 5.74 µM.
